This is an account of results in paper PMC5107130 (Pharmacological Research, 2016).

Test [1] has as its target T1, Recombinant full length human CBS (Homo sapiens, UniProt P35520).
T1 sequence (P35520 1-551): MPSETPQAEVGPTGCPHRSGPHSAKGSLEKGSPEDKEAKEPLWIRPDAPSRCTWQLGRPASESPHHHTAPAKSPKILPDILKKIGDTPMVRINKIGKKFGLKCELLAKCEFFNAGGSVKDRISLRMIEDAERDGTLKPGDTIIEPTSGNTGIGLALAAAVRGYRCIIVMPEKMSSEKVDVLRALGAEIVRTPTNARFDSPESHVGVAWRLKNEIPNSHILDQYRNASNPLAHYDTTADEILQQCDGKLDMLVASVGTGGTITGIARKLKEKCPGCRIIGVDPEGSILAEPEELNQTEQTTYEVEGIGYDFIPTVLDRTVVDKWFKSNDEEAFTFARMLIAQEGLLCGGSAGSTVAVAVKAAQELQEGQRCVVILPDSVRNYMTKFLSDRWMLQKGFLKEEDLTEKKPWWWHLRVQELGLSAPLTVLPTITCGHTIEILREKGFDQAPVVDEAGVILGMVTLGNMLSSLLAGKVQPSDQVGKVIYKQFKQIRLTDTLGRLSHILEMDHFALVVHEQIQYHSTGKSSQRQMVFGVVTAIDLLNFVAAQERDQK
Briefly: AzMC fluorescence assay of CBS-derived H2S production. In kind it is biochemical. The conditions noted are these: for Confirmation (% inhibition of CBS-induced AzMC fluorescence) / % inhibition of CBS-induced AzMC fluorescence: mean ± SEM, n = 3; for IC50: read-out: IC50, inhibition of recombinant CBS (CBS-induced AzMC fluorescence), cell-free, 2 mM L-cysteine and homocysteine; for % inhibition of CBS-induced AzMC fluorescence: copper compounds.

Test [2] in a line: Counterscreen: AzMC fluorescence signal generated by the H2S donor GYY4137. The conditions noted are these: mean ± SEM, n = 3; for % inhibition of GYY4137-induced AzMC fluorescence: copper compounds.
Where [3] appears, read: read-out: Confirmation (% inhibition of CBS-induced AzMC fluorescence), 30 μM, mean ± SEM, n = 3.
Where [4] appears, read: read-out: Initial screen (% inhibition of CBS-induced AzMC fluorescence), 30 μM.
Setting [5] is: read-out: % inhibition of recombinant CBS activity.
[6] abbreviates: read-out: Confirmation (% inhibition of CBS-induced AzMC fluorescence).
Where [7] appears, read: read-out: Initial screen (% inhibition of CBS-induced AzMC fluorescence).

Several values for one entry are separate records, joined by “and”; a condition that tells them apart may be missing. Equal values may be shown once. Read-outs that look alike come from different tables or passages of the source.

In the case of `COC1=C(OC)C(=O)c2ccccc2C1=O` [2,3-Dimethoxy-1,4-naphthoquinone], the inhibition at 30 µM in test [1] (setting [3]) turned out to be 53 ± 1%; in test [1] (setting [4]), 49%. Also, the “Confirmation (% inhibition of GYY4137-induced AzMC fluorescence)” value in test [2] (30 μM) is 51 ± 4%.

As to `NNCc1cccc(O)c1` [3-hydroxybenzylhydrazine], in test [1] (setting [5]), the inhibition at 10 µM turned out to be 24%, the inhibition at 30 µM was found to be 37% and the inhibition at 100 µM was found to be 68%.

Regarding `NC(N)=NC(=O)c1nc(Cl)c(N2CCCCCC2)nc1N` [5-(N,N-hexamethylene)amiloride], in test [1] (30 μM), the “Initial screen (% inhibition of CBS-induced AzMC fluorescence)” value was 72% and the “Confirmation (% inhibition of CBS-induced AzMC fluorescence)” value amounted to 58 ± 3%. The “Confirmation (% inhibition of GYY4137-induced AzMC fluorescence)” value in test [2] (30 μM) was 54 ± 4%.

Consider `C[C@@](Cc1ccc(O)c(O)c1)(NN)C(=O)O` [Carbidopa], for which the inhibition at 100 µM in test [1] (read-out: % inhibition of recombinant CBS activity, 100 μM, standard assay conditions, freshly dissolved) is 6%.

Consider `CC(C)/N=c1\cc2n(-c3ccc(Cl)cc3)c3ccccc3nc-2cc1Nc1ccc(Cl)cc1` [Clofazimine], for which the inhibition at 30 µM in test [1] (setting [3]) is 30 ± 7%; in test [1] (setting [4]), 47%. The “Confirmation (% inhibition of GYY4137-induced AzMC fluorescence)” value in test [2] (30 μM) came out at 28 ± 5%.

Consider `Cc1cc(C(C#N)c2ccc(Cl)cc2)c(Cl)cc1NC(=O)c1cc(I)cc(I)c1O` (stereo not drawn) [Closantel], for which the inhibition at 30 µM was 25 ± 5% in test [1] (setting [6]) and 43% in test [1] (setting [7]). The “Confirmation (% inhibition of GYY4137-induced AzMC fluorescence)” value in test [2] (30 μM) amounted to 31 ± 2%.

Take `O=[N+]([O-])[O-].O=[N+]([O-])[O-].[Cu+2]` [Cu(NO2)2, copper(II) nitrate]: the concentration for half-maximal inhibition (IC50) in test [1] is about 200 nM.

On to `CC(=O)[O-].CC(=O)[O-].[Cu+2]` [CuAc, copper(II) acetate], for which the “% inhibition of CBS-induced AzMC fluorescence” value in test [1] (0.1 μM) worked out at 39 ± 1%; in test [1] (0.3 μM), 66 ± 1%; in test [1] (1 μM) it was 92 ± 1%. Further, the 50% inhibitory concentration (IC50) in test [1] is about 200 nM. For the same compound, the “% inhibition of GYY4137-induced AzMC fluorescence” value in test [2] (0.1 μM) was 2 ± 2%; in test [2] (0.3 μM), 12 ± 1%; in test [2] (1 μM), 17 ± 1%.

Take `O=S(=O)([O-])c1cc(N=C=S)ccc1C=Cc1ccc(N=C=S)cc1S(=O)(=O)[O-].[Na+].[Na+]` [DIDS, 4,4′-diisothiocyanostilbene-2,2′-sufonic acid sodium salt]: in test [1] (30 μM), the “Initial screen (% inhibition of CBS-induced AzMC fluorescence)” value was 69% and the “Confirmation (% inhibition of CBS-induced AzMC fluorescence)” value came to 58 ± 4%. For the same compound, the “Confirmation (% inhibition of GYY4137-induced AzMC fluorescence)” value in test [2] (30 μM) was determined as 56 ± 5%.

In the case of `COc1cc2cc3c4c(cc(OC)c(OC)c4c2cc1OC)CCN3C` [Dehydroglaucine], in test [1] (17 μM), the “Initial screen (% inhibition of CBS-induced AzMC fluorescence)” value is 62% (17 μM) and the “Confirmation (% inhibition of CBS-induced AzMC fluorescence)” value is 82 ± 4 (17 μM) %. The “Confirmation (% inhibition of GYY4137-induced AzMC fluorescence)” value in test [2] (17 μM) is 57 ± 8 (17 μM) %.

On to `CC1=C(C2=C(C)C(=O)c3c(c(C=O)c(O)c(O)c3C(C)C)C2=O)C(=O)c2c(C=O)c(O)c(O)c(C(C)C)c2C1=O` [Gossypolone], for which the values for the inhibition at 12 µM in test [1] (setting [6]) and in test [1] (setting [7]) were 30 ± 5% and 57%, respectively. The “Confirmation (% inhibition of GYY4137-induced AzMC fluorescence)” value in test [2] (12 μM) is recorded as 25 ± 4 (12 μM) %.

As to `O=C1C=CC(=O)c2c(O)cccc21` [Juglone], the “Confirmation (% inhibition of GYY4137-induced AzMC fluorescence)” value in test [2] (30 μM) came to 61 ± 3%.

As to `O=Nc1ccc(O)c2ncccc12` [NSC 3852, 5-Nitroso-8-quinolinol], the inhibition at 30 µM in test [1] (setting [3]) worked out at 48 ± 5%; in test [1] (setting [4]), 58%. The “Confirmation (% inhibition of GYY4137-induced AzMC fluorescence)” value in test [2] (30 μM) stood at 47 ± 5%.

As for `O=C1C(SCCO)=C(SCCO)C(=O)c2ccccc21` [NSC 95397, 2,3bis[(2-Hydroxyethyl)thio]-1,4-naphthoquinone], in test [1] (30 μM), the “Initial screen (% inhibition of CBS-induced AzMC fluorescence)” value worked out at 70% and the “Confirmation (% inhibition of CBS-induced AzMC fluorescence)” value was 59 ± 8%. For the same compound, in test [1] (setting [3]), the inhibition at 30 µM is 58 ± 8%. The inhibition at 30 µM in test [1] (setting [4]) stood at 68%. Also, the “Confirmation (% inhibition of GYY4137-induced AzMC fluorescence)” value in test [2] (30 μM) amounted to 58 ± 1%.

Turning to `O=C(N/N=C/c1ccc([N+](=O)[O-])o1)c1ccc(O)cc1` [Nifuroxazide], the inhibition at 30 µM was 55 ± 4% in test [1] (setting [3]) and 48% in test [1] (setting [4]). For the same compound, the “Confirmation (% inhibition of GYY4137-induced AzMC fluorescence)” value in test [2] (30 μM) stood at 50 ± 2%.

With `NC(=O)N/N=C/c1ccc([N+](=O)[O-])o1` [Nitrofurazone], the inhibition at 30 µM amounted to 54 ± 2% in test [1] (setting [3]) and 52% in test [1] (setting [4]). In test [2] (30 μM), the “Confirmation (% inhibition of GYY4137-induced AzMC fluorescence)” value is 48 ± 5%.

Turning to `CC(=O)[O][Hg][c]1ccccc1` [Phenylmercuric acetate], in test [1] (30 μM), the “Initial screen (% inhibition of CBS-induced AzMC fluorescence)” value is 69% and 52%; the “Confirmation (% inhibition of CBS-induced AzMC fluorescence)” value is 50 ± 6% and 29 ± 4%. For the same compound, the “Confirmation (% inhibition of GYY4137-induced AzMC fluorescence)” value in test [2] (30 μM) is 59 ± 2% and 32 ± 4%.

Consider `CC(=O)[C@H]1CC[C@H]2[C@@H]3CCC4=CC(=O)CC[C@]4(C)[C@H]3CC[C@]12C` [Progesterone], for which the inhibition at 30 µM in test [1] (setting [3]) worked out at 75 ± 3%; in test [1] (setting [4]) it was 68%. Further, the “Confirmation (% inhibition of GYY4137-induced AzMC fluorescence)” value in test [2] (30 μM) was 64 ± 1%.

Turning to `Cc1cc(/C=C/c2ccc3cc(N(C)C)ccc3[n+]2C)c(C)n1-c1ccccc1` [Pyrvinium pamoate], the inhibition at 30 µM in test [1] (setting [4]) worked out at 49%. Also, in test [2] (30 μM), the “Confirmation (% inhibition of GYY4137-induced AzMC fluorescence)” value is listed as 36 ± 3%.

Turning to `Cc1cc2nc3c(=O)[nH]c(=O)nc-3n(C)c2cc1C=O` [Ro-08-2750, 2,3,4,10-Tetrahydro-7,10-dimethyl-2,4-dioxobenzo[g]pteridine-8-carboxaldehyde], the values for the inhibition at 30 µM in test [1] (setting [3]) and in test [1] (setting [4]) were 59 ± 3% and 55%, respectively. In test [2] (30 μM), the “Confirmation (% inhibition of GYY4137-induced AzMC fluorescence)” value is recorded as 69 ± 8%.

For `N.N.N.N.N.N.N.N.N.N.N.N.N.N.[Cl-].[Cl-].[Cl-].[Cl-].[Cl-].[Cl-].[O-2].[O-2].[Ru+3].[Ru+3].[Ru+4]` [Ruthenium red], in test [1] (30 μM), the “Initial screen (% inhibition of CBS-induced AzMC fluorescence)” value was 72% and the “Confirmation (% inhibition of CBS-induced AzMC fluorescence)” value came out at 72 ± 6%. The “Confirmation (% inhibition of GYY4137-induced AzMC fluorescence)” value in test [2] (30 μM) was 72 ± 3%.

Consider `N#C/C(=C\c1ccc(O)c(O)c1)C(=O)NCCCNC(=O)/C(C#N)=C/c1ccc(O)c(O)c1` [Tyrphostin AG 537], for which, in test [1] (30 μM), the “Initial screen (% inhibition of CBS-induced AzMC fluorescence)” value turned out to be 49% and the “Confirmation (% inhibition of CBS-induced AzMC fluorescence)” value was found to be 42 ± 1%. In addition, the “Confirmation (% inhibition of GYY4137-induced AzMC fluorescence)” value in test [2] (30 μM) amounted to 48 ± 2%.

Take Chlorophyllide Cu complex Na salt: in test [1] (30 μM), the “Initial screen (% inhibition of CBS-induced AzMC fluorescence)” value came out at 80% and the “Confirmation (% inhibition of CBS-induced AzMC fluorescence)” value was found to be 97 ± 1%. In test [1] (30 μM, listed as Chlorophyllide cu complex Na salt), the “Initial screen (% inhibition of CBS-induced AzMC fluorescence)” value worked out at 82%. The “Confirmation (% inhibition of GYY4137-induced AzMC fluorescence)” value in test [2] (30 μM) was determined as 78 ± 3%.

Turning to Verteporfin, in test [1] (30 μM), the “Initial screen (% inhibition of CBS-induced AzMC fluorescence)” value was 69% and the “Confirmation (% inhibition of CBS-induced AzMC fluorescence)” value is 41 ± 5%. Further, in test [2] (30 μM), the “Confirmation (% inhibition of GYY4137-induced AzMC fluorescence)” value was 38 ± 5%.
